Assay results: patent publication US9233971B2, “Lipomacrocycles and uses thereof” (priority 2010, dated 2016)

Columns and labels:
[1] = system: APOB mRNA in liver; assay: In vivo gene knockdown, liposomal siRNA formulation (Example 3), APOB siRNA; conditions: dose 3 mg/kg intravenously, CD1 mice, liver harvested three days later, real-time RT-PCR, GAPDH reference
Protocol: (§1) Each liposome formulation was made by mixing lipids of each lipomacrocycle compound (Table 1) combined with DSPC, DMG-PEG 2K, and cholesterol at the weight ratio of 3.85:0.42:0.21:0.79 in ethanol and siRNA in water. Then 5% dextrose water was added in each formulation before dosing to mice.
(§2) All procedures used in animal studies conducted were approved by the Institutional Animal Care and Use Committee (IACUC) and were consistent with local, state and federal regulations as applicable. Mice, rats, and rabbits received siRNA formulations intravenously at dose volume of 0.2 ml, 1 ml, or 10 ml, respectively. Animals were sacrificed 2 to 7 days later. Tissues were harvested and mRNA was isolated with Turbocapture kit (Qiagen) for analyzing change of gene expression with real-time RT-PCR method (SensiMix SYBR One-Step Kit, Bioline). Serum was harvested for analyzing blood chemistry.
(§3) CD1 mice were dosed with lipid particle (Table 1) or liposome (Table 2) siRNA formulation intravenousely and the different tissues were harvested three days later. The gene expression was analyzed with real-time RT-PCR method (for liver, GAPDH as reference gene; for lung and bone marrow, GAPDG and β-actin as reference genes).

[2] = system: SSB mRNA in liver; assay: In vivo gene knockdown, lipid particle siRNA formulation (Example 4), SSB siRNA; conditions: lipid particles, dose 3.2 mg/kg intravenously, CD1 mice, liver harvested three days later, real-time RT-PCR, GAPDH reference
Protocol: Lipid Particle formulations were made by first mixed siRNA in an aqueous solution with DOTMA in organic solvent to produce a water-insoluble precipitate. After isolating and drying the precipitate, the precipitate was dissolved in chloroform and further mixed with other lipids as following: Each lipid particle formulation was consisting of 1 part DOTMA+siRNA complex/5 parts any lipomacrocycle compound (Table 1)/1.5 parts N 6-tetrakis (3-aminopropyl)-1,3-propanediamine cholesteryl carbamate/2.2 parts 1,2-dilinoleoyl-sn-glycero-3-phosphoethanolamine/10.08 parts cholesterol PEG-660/4.32 parts cholesterol PEG-660/0.6 parts cholesterol (weight/weight). All the components were dissolved in chloroform and mixed together. Then, the mixtures were dried overnight in Speedvac. The dried formulations were hydrated by adding in certain amount of 5% dextrose water before dosing to animals intravenously.
as §2, §3

[3] = system: SSB mRNA in liver; assay: In vivo gene knockdown, liposomal siRNA formulation (Example 3), SSB siRNA; set-up: species or system CD1 mice; conditions: liposomal formulation, SSB siRNA, dose 3.2 mg/kg intravenously, CD1 mice, liver harvested three days later, real-time RT-PCR, GAPDH reference
Protocol: as §1, §2, §3

Structure (SMILES) | Targeted mRNA remain in liver [1] | Targeted mRNA remain in liver [2] | Targeted mRNA remain in liver [3]
CC(C)(C)c1ccc(C(=O)OCC(O)CN(CCCN(CCCCN(CCCN(CC(O)COC(=O)c2ccc(C(C)(C)C)cc2)CC(O)COC(=O)c2ccc(C(C)(C)C)cc2)CCCN(CC(O)COC(=O)c2ccc(C(C)(C)C)cc2)CC(O)COC(=O)c2ccc(C(C)(C)C)cc2)CCCN(CC(O)COC(=O)c2ccc(C(C)(C)C)cc2)CC(O)COC(=O)c2ccc(C(C)(C)C)cc2)CC(O)COC(=O)c2ccc(C(C)(C)C)cc2)cc1 (centres unmarked) [Compound T4C11] | 1.07 | – | –
CC(C)(C)C(O)(CCc1ccc(Cl)cc1)CN(CCCN(CCCCN(CCCN(CC(O)(CCc1ccc(Cl)cc1)C(C)(C)C)CC(O)(CCc1ccc(Cl)cc1)C(C)(C)C)CCCN(CC(O)(CCc1ccc(Cl)cc1)C(C)(C)C)CC(O)(CCc1ccc(Cl)cc1)C(C)(C)C)CCCN(CC(O)(CCc1ccc(Cl)cc1)C(C)(C)C)CC(O)(CCc1ccc(Cl)cc1)C(C)(C)C)CC(O)(CCc1ccc(Cl)cc1)C(C)(C)C (centres unmarked) [Compound T4C18] | 1.56 | – | –
CCCCCCCCCCCCOCC(O)CN(CCCN(CCCCN(CCCN(CC(O)COCCCCCCCCCCCC)CC(O)COCCCCCCCCCCCC)CCCN(CC(O)COCCCCCCCCCCCC)CC(O)COCCCCCCCCCCCC)CCCN(CC(O)COCCCCCCCCCCCC)CC(O)COCCCCCCCCCCCC)CC(O)COCCCCCCCCCCCC (centres unmarked) [Compound T4C10] | 0.82 | – | –
CCCCCCCCCCCCCCOCC(O)CN(CCCN(CCCN(CCCN(CC(O)COCCCCCCCCCCCCCC)CC(O)COCCCCCCCCCCCCCC)CCCN(CC(O)COCCCCCCCCCCCCCC)CC(O)COCCCCCCCCCCCCCC)CCCN(CC(O)COCCCCCCCCCCCCCC)CC(O)COCCCCCCCCCCCCCC)CC(O)COCCCCCCCCCCCCCC (centres unmarked) [Compound T3C1] | – | 0.18 | 0.13
